From ChEMBL document CHEMBL4732064, “Structure-activity relationship studies of phenothiazine derivatives as a new class of ferroptosis inhibitors together with the therapeutic effect in an ischemic stroke model” (Eur J Med Chem, 2021)
Activity calls are given as the source filed them. The calls are words filed in the database; no cut-off is given here.

System: THP-1
Experiment: Protection against nigericin-induced pyroptosis in human THP-1 cells assessed as cell viability at 10 uM
Type: functional, cell-based
Settings: not given

With CC(C)(O)c1coc(S(=O)(=O)NC(=O)Nc2c3c(cc4c2CCC4)CCC3)c1 the Activity was “Active”.

System: HT-1080
Experiment: Inhibition of erastin-induced ferroptosis in human HT-1080 cells assessed as cell viability incubated for 48 hrs by MTT assay
Type: functional, cell-based
Settings: HT-1080, 48 h

First: CC1CCN(CC(=O)N2c3ccccc3Sc3ccccc32)CC1
Second: O=C(CN1CCCC1)N1c2ccccc2Sc2ccccc21
The EC50 of the first is 2.4-fold higher: 2760 nM for the first, 1130 nM for the second. The second is the more potent here.

Compared with CC(c1ccc(Cl)cc1)c1ccc2c(c1)Nc1ccccc1S2 (configuration not stated), CC(c1ccc(F)cc1)c1ccc2c(c1)Nc1ccccc1S2 (configuration not stated) is 2.7-fold lower in EC50: 16 nM for the first, 6 nM for the second.

Compared with O=C(c1ccncc1)N1c2ccccc2Sc2ccccc21, COc1ccccc1C(=O)N1c2ccccc2Sc2ccccc21 is higher in EC50: 4470 nM for the first, > 10000 nM for the second. The first is the more potent here.

COC(=O)c1ccc(C(C)c2ccc3c(c2)Nc2ccccc2S3)cc1Cl (configuration not stated) and COc1cc(C(C)c2ccc3c(c2)Nc2ccccc2S3)ccc1Cl (configuration not stated) are within 1.5-fold of each other in EC50: 21 nM for the first, 22 nM for the second.

COc1cc(C(C)c2ccc3c(c2)Nc2ccccc2S3)ccc1C (configuration not stated) and COc1ccc(C(C)c2ccc3c(c2)Nc2ccccc2S3)cc1C (configuration not stated) are within 1.5-fold of each other in EC50: 22 nM for the first, 19 nM for the second.

CC(c1ccc2c(c1)Nc1ccccc1S2)S(=O)(=O)N1CCN(S(C)(=O)=O)CC1 (configuration not stated) and CC(c1ccc2c(c1)Nc1ccccc1S2)S(=O)(=O)N1CCN(C)CC1 (configuration not stated) are within 1.5-fold of each other in EC50: 35 nM for the first, 34 nM for the second.

Compared with CC(c1cccc(N2CCN(C)CC2)c1)c1ccc2c(c1)Nc1ccccc1S2 (configuration not stated), CC(c1cccc(N2CCOCC2)c1)c1ccc2c(c1)Nc1ccccc1S2 (configuration not stated) is 1.6-fold higher in EC50: 9 nM for the first, 14 nM for the second. The first is the more potent here.

CC(c1ccc2c(c1)Nc1ccccc1S2)S(=O)(=O)N1CCN(c2ccc(F)cc2F)CC1 (configuration not stated) and CC(c1ccc2c(c1)Nc1ccccc1S2)S(=O)(=O)N1CCN(c2ccc(F)cc2)CC1 (configuration not stated) are the same in EC50: 80 nM for the first, 80 nM for the second.

Compared with COc1ccc2c(c1)Nc1ccccc1S2, CCc1ccc2c(c1)Nc1ccccc1S2 is 58-fold lower in EC50: 1750 nM for the first, 30 nM for the second.

First: CC(=NNC(=O)c1ccco1)c1ccc2c(c1)Nc1ccccc1S2
Second: C/C(=N\NC(=O)c1ccccn1)c1ccc2c(c1)Nc1ccccc1S2
The EC50 of the first is 3.8-fold lower: 17 nM for the first, 65 nM for the second. The first is the more potent here.

First: COCCNC(=O)N1c2ccccc2Sc2ccccc21
Second: CC(=O)N1c2ccccc2Sc2ccccc21
The EC50 of the first is higher: > 10000 nM for the first, 1150 nM for the second. The second is the more potent here.

CN1c2ccccc2Sc2ccccc21 and CCCN1c2ccccc2Sc2ccccc21 cannot be ordered by EC50: > 10000 nM for the first, > 10000 nM for the second.

Compared with CC(OC(=O)c1ccccc1)c1ccc2c(c1)Nc1ccccc1S2 (configuration not stated), CC(c1ccccc1)c1ccc2c(c1)Nc1ccccc1S2 (configuration not stated) is 3.2-fold lower in EC50: 13 nM for the first, 4 nM for the second.

CC(c1ccc2c(c1)Nc1ccccc1S2)S(=O)(=O)N1CCOCC1 (configuration not stated) and CC(c1ccc2c(c1)Nc1ccccc1S2)S(=O)(=O)N1CCSCC1 (configuration not stated) are within 1.5-fold of each other in EC50: 67 nM for the first, 78 nM for the second.

First: CC(OC(=O)CCN1c2ccccc2Sc2ccccc21)c1ccc(F)cc1 (configuration not stated)
Second: CC(=O)c1cccc(NC(=O)CCN2c3ccccc3Sc3ccccc32)c1
The EC50 of the first is higher: > 10000 nM for the first, 4300 nM for the second. The second is the more potent here.

CC(C)Oc1cccc(C(C)c2ccc3c(c2)Nc2ccccc2S3)c1 (configuration not stated) and CC(C)c1cccc(C(C)c2ccc3c(c2)Nc2ccccc2S3)c1 (configuration not stated) are within 1.5-fold of each other in EC50: 15 nM for the first, 12 nM for the second.

Going from O=Cc1ccc2c(c1)Nc1ccccc1S2 to CC(=O)c1ccc2c(c1)Nc1ccccc1S2, the EC50 falls from 142 nM to 38 nM (3.7-fold). The second is the more potent here.

First: CC(c1ccc2c(c1)Nc1ccccc1S2)c1ccc(F)c(OCc2ccccc2)c1 (configuration not stated)
Second: Cc1cc(C(C)c2ccc3c(c2)Nc2ccccc2S3)ccc1OCc1ccccc1 (configuration not stated)
The EC50 of the first is 2-fold lower: 35 nM for the first, 71 nM for the second. The first is the more potent here.

First: CC(c1ccc(Cl)c(Cl)c1)c1ccc2c(c1)Nc1ccccc1S2 (configuration not stated)
Second: CC(c1ccc(F)c(Cl)c1)c1ccc2c(c1)Nc1ccccc1S2 (configuration not stated)
The EC50 of the first is 3.2-fold higher: 16 nM for the first, 5 nM for the second. The second is the more potent here.

First: CC(C)c1ccc(C(C)c2ccc3c(c2)Nc2ccccc2S3)cc1 (configuration not stated)
Second: CC(C)Cc1ccc(C(C)c2ccc3c(c2)Nc2ccccc2S3)cc1 (configuration not stated)
The EC50 of the first is 1.5-fold lower: 6 nM for the first, 9 nM for the second.

Going from CC(c1cc(F)cc(OCc2ccccc2)c1)c1ccc2c(c1)Nc1ccccc1S2 (configuration not stated) to CC(c1cccc(OCc2ccccc2)c1)c1ccc2c(c1)Nc1ccccc1S2 (configuration not stated), the EC50 falls from 60 nM to 25 nM (2.4-fold). The second is the more potent here.

Cc1cccc(C(C)c2ccc3c(c2)Nc2ccccc2S3)c1 (configuration not stated) and CC(c1cccc(O)c1)c1ccc2c(c1)Nc1ccccc1S2 (configuration not stated) are the same in EC50: 5 nM for the first, 5 nM for the second.

CCOc1cccc(C(C)c2ccc3c(c2)Nc2ccccc2S3)c1 (configuration not stated) and CCc1cccc(C(C)c2ccc3c(c2)Nc2ccccc2S3)c1 (configuration not stated) are within 1.5-fold of each other in EC50: 14 nM for the first, 18 nM for the second.

Compared with CC(c1cccc(C(=O)OC(C)(C)C)c1)c1ccc2c(c1)Nc1ccccc1S2 (configuration not stated), CC(c1cccc(NC(=O)OC(C)(C)C)c1)c1ccc2c(c1)Nc1ccccc1S2 (configuration not stated) is 3.1-fold higher in EC50: 17 nM for the first, 52 nM for the second. The first is the more potent here.

Compared with C/C(=N\NC(=O)c1ccccc1C)c1ccc2c(c1)Nc1ccccc1S2, CCOc1ccccc1C(=O)N/N=C(\C)c1ccc2c(c1)Nc1ccccc1S2 is 3.6-fold higher in EC50: 5 nM for the first, 18 nM for the second. The first is the more potent here.

Compared with COc1ccc(OCC(=O)N2c3ccccc3Sc3ccccc32)cc1, Cc1ccc(SCC(=O)N2c3ccccc3Sc3ccccc32)cc1 is higher in EC50: 145 nM for the first, > 10000 nM for the second.

Compared with COc1cccc(N2CCN(S(=O)(=O)C(C)c3ccc4c(c3)Nc3ccccc3S4)CC2)c1 (configuration not stated), CCN1CCN(S(=O)(=O)C(C)c2ccc3c(c2)Nc2ccccc2S3)CC1 (configuration not stated) is 1.8-fold lower in EC50: 57 nM for the first, 32 nM for the second. The second is the more potent here.

CC(c1cc(Cl)cc(Cl)c1)c1ccc2c(c1)Nc1ccccc1S2 (configuration not stated) and Cc1cc(Cl)cc(C(C)c2ccc3c(c2)Nc2ccccc2S3)c1 (configuration not stated) are within 1.5-fold of each other in EC50: 17 nM for the first, 24 nM for the second.

CC(c1ccc(OCc2ccccc2)cc1)c1ccc2c(c1)Nc1ccccc1S2 (configuration not stated) and CCOc1ccc(C(C)c2ccc3c(c2)Nc2ccccc2S3)cc1 (configuration not stated) are within 1.5-fold of each other in EC50: 14 nM for the first, 17 nM for the second.

Going from Cc1cnc(SCC(=O)N2c3ccccc3Sc3ccccc32)nc1 to CC(CN1c2ccccc2Sc2ccccc21)N(C)C (configuration not stated) [PROMETHAZINE], the EC50 falls from > 10000 nM to 264 nM.

First: COc1cc(C(C)c2ccc3c(c2)Nc2ccccc2S3)ccc1F (configuration not stated)
Second: COc1ccc(C(C)c2ccc3c(c2)Nc2ccccc2S3)cc1OC (configuration not stated)
The EC50 of the first is 3.6-fold higher: 25 nM for the first, 7 nM for the second. The second is the more potent here.

Going from CC(c1cccc(C#N)c1)c1ccc2c(c1)Nc1ccccc1S2 (configuration not stated) to CC(c1cccc(F)c1)c1ccc2c(c1)Nc1ccccc1S2 (configuration not stated), the EC50 falls from 15 nM to 6 nM (2.5-fold).

Compared with CC(C)N1CCN(S(=O)(=O)C(C)c2ccc3c(c2)Nc2ccccc2S3)CC1 (configuration not stated), CS(=O)(=O)c1ccc2c(c1)Nc1ccccc1S2 is 7.8-fold higher in EC50: 25 nM for the first, 195 nM for the second.

Going from C/C(=N\NC(=O)c1cccnc1)c1ccc2c(c1)Nc1ccccc1S2 to C/C(=N\NS(=O)(=O)c1ccc(C)cc1)c1ccc2c(c1)Nc1ccccc1S2, the EC50 falls from 71 nM to 28 nM (2.5-fold).

First: CC(c1ccc(C#N)cc1)c1ccc2c(c1)Nc1ccccc1S2 (configuration not stated)
Second: CCc1ccc(C(C)c2ccc3c(c2)Nc2ccccc2S3)cc1 (configuration not stated)
The EC50 of the first is 3.3-fold lower: 6 nM for the first, 20 nM for the second. The first is the more potent here.

First: CC(OC(=O)CCCN1C(=O)c2ccccc2C1=O)C(=O)N1c2ccccc2Sc2ccccc21 (configuration not stated)
Second: CC(=O)c1ccccc1NC(=O)COC(=O)CCN1c2ccccc2Sc2ccccc21
The EC50 of the first is lower: 439 nM for the first, > 10000 nM for the second.

CCOC(=O)c1cc(F)cc(C(C)c2ccc3c(c2)Nc2ccccc2S3)c1 (configuration not stated) and Cc1cc(C)cc(C(C)c2ccc3c(c2)Nc2ccccc2S3)c1 (configuration not stated) are within 1.5-fold of each other in EC50: 30 nM for the first, 21 nM for the second.

Compared with O=C(CCN1c2ccccc2Sc2ccccc21)N1CCN(CCO)CC1, CC(NC(=O)CCN1c2ccccc2Sc2ccccc21)C1CC1 (configuration not stated) is lower in EC50: > 10000 nM for the first, 4040 nM for the second. The second is the more potent here.

Going from CCN(CC)CC(O)CN1c2ccccc2Sc2ccccc21 (configuration not stated) to CCCCC(CC)CN1c2ccccc2Sc2ccccc21 (configuration not stated), the EC50 rises from 4420 nM to > 10000 nM. The first is the more potent here.

Going from Cc1ccc(C)c(NC(=O)CN(C)C(=O)CCN2c3ccccc3Sc3ccccc32)c1 to c1ccc(Cc2ccc3c(c2)Nc2ccccc2S3)cc1, the EC50 falls from 5240 nM to 17 nM (310-fold).

Compared with FC(F)(F)c1ccc2c(c1)Nc1ccccc1S2, CC(c1ccc(C(F)(F)F)cc1)c1ccc2c(c1)Nc1ccccc1S2 (configuration not stated) is 7.8-fold lower in EC50: 47 nM for the first, 6 nM for the second.

CCOC(=O)c1ccc(NC2CCCCC2)c(N)c1 and OCc1ccc2c(c1)Nc1ccccc1S2 are within 1.5-fold of each other in EC50: 88 nM for the first, 63 nM for the second.

CCCCc1ccc(C(C)c2ccc3c(c2)Nc2ccccc2S3)cc1 (configuration not stated) and CCCOc1ccc(C(C)c2ccc3c(c2)Nc2ccccc2S3)cc1 (configuration not stated) are within 1.5-fold of each other in EC50: 64 nM for the first, 62 nM for the second.

CC(c1ccc(Cl)c(F)c1)c1ccc2c(c1)Nc1ccccc1S2 (configuration not stated) and CC(c1ccc(C(F)(F)F)c(Cl)c1)c1ccc2c(c1)Nc1ccccc1S2 (configuration not stated) are within 1.5-fold of each other in EC50: 19 nM for the first, 17 nM for the second.

First: CC(c1ccc(N2CCOCC2)cc1)c1ccc2c(c1)Nc1ccccc1S2 (configuration not stated)
Second: CC(c1ccc(C(C)(C)C)cc1)c1ccc2c(c1)Nc1ccccc1S2 (configuration not stated)
The EC50 of the first is 5.6-fold lower: 13 nM for the first, 73 nM for the second.

Going from N#Cc1ccc2c(c1)Nc1ccccc1S2 to CSc1ccc2c(c1)Nc1ccccc1S2, the EC50 falls from 209 nM to 64 nM (3.3-fold). The second is the more potent here.

First: CC(C)Oc1ccc(C(C)c2ccc3c(c2)Nc2ccccc2S3)cc1 (configuration not stated)
Second: CC(c1ccc(NC(=O)OC(C)(C)C)cc1)c1ccc2c(c1)Nc1ccccc1S2 (configuration not stated)
The EC50 of the first is 2.3-fold lower: 17 nM for the first, 39 nM for the second. The first is the more potent here.

First: c1ccc2c(c1)Nc1ccccc1S2 [PHENOTHIAZINE]
Second: CC(c1cccc(Cl)c1)c1ccc2c(c1)Nc1ccccc1S2 (configuration not stated)
The EC50 of the first is 9.8-fold higher: 49 nM for the first, 5 nM for the second.

Work on COc1cc(OC)cc(C(C)c2ccc3c(c2)Nc2ccccc2S3)c1 (configuration not stated) yielded an EC50 of 13 nM.

System: HT-29
Experiment: Protection against TNFalpha/Smac-mimetic/Z-VAD-FMK-induced necroptosis in human HT-29 cells assessed as cell viability at 10 uM
Type: functional, cell-based
Settings: not given

With CN1C(=O)C(Cc2c[nH]c3ccccc23)NC1=S (configuration not stated) the Activity was “Active”.
CCOC(=O)c1ccc(NC2CCCCC2)c(N)c1 was tested, and the Activity was “inactive”.

System: HT-1080
Experiment: Inhibition of rotenone-induced oxidative cell death in human HT-1080 cells at 10 uM incubated for 24 hrs
Type: functional, cell-based
Settings: not given

CCOC(=O)c1ccc(NC2CCCCC2)c(N)c1 was tested, and the inhibition was “inactive”.

System: HT-1080
Experiment: Inhibition of H2O2-induced oxidative cell death in human HT-1080 cells at 10 uM incubated for 24 hrs
Type: functional, cell-based
Settings: not given

In the case of CCOC(=O)c1ccc(NC2CCCCC2)c(N)c1, the Activity is reported as “inactive”.
